Test results from the supplement of paper PMC13380429.
± gives the standard deviation of the averaged measurements.

How the values were obtained:
Calu-3 [1] = test: drug sensitivity score (DSS) for viability; higher = more toxic; extreme values may be limits of the assay; details: 72 h
Caco-2 [2] = test: as above; details: 72 h
Vero E6 [3] = test: as above; details: 72 h
HepG2 [4] = test: as above; details: 72 h
U2OS [5] = test: as above; details: 72 h
A549-ACE2 [6] = test: drug-induced phospholipidosis relative to tamoxifen; higher = more phospholipidosis
[7] = tested on: A549-ACE2 infected with SARS-CoV-2; test: cell count relative to DMSO; higher = less toxic; details: 24 h
Caco-2 [8] = test: relative viability EC50 (midpoint between 100% and the lowest measured viability); higher = less toxic; details: 72 h
HepG2 [9] = test: as above; details: 72 h
U2OS [10] = test: as above; details: 72 h
[11] = tested on: A549-ACE2 infected with SARS-CoV-2; test: morphology score (similarity to uninfected cells); higher = more like uninfected cells; details: 24 h
[12] = tested on: A549-ACE2 infected with SARS-CoV-2; test: SARS-CoV-2 infection rate relative to DMSO; higher = more infection; details: 24 h
Calu-3 [13] = test: cell viability relative to DMSO; higher = less toxic; details: 72 h
Caco-2 [14] = test: as above; details: 72 h
Vero E6 [15] = test: as above; details: 72 h
HepG2 [16] = test: as above; details: 72 h
U2OS [17] = test: as above; details: 72 h
A549-ACE2 [18] = test: phospholipidosis EC50; higher = less potent phospholipidosis inducer
Calu-3 [19] = test: relative viability EC50 (midpoint between 100% and the lowest measured viability); higher = less toxic; details: 72 h
Vero E6 [20] = test: as above; details: 72 h

C=C1C(=O)O[C@@H]2[C@H]3O[C@]3(C)CC/C=C(\C)CC[C@@H]12 [parthenolide-(alternate-stereo)]
Details | drug sensitivity score | relative viability EC50 [µM]
Caco-2 [2] | 3.07 ± 0.23 | –
Caco-2 [8] | – | 2.99
Calu-3 [1] | 0.733 ± 0.87 | –
HepG2 [4] | 5.27 ± 0.4 | –
HepG2 [9] | – | 2.48
U2OS [5] | 5.23 ± 0.75 | –
U2OS [10] | – | 2.94
Vero E6 [3] | 2.37 ± 0.75 | –

drug-induced phospholipidosis [%], A549-ACE2 [6]
Details | 0.3 µM | 0.833333 µM | 3.33333 µM | 6.66667 µM | 10 µM
24 h | 1.51 ± 1.3 | 0.313 ± 1.5 | 6.15 ± 4 | 18.1 ± 6.9 | 24 ± 3.2
48 h | 1.04 ± 1.1 | -0.06 ± 1.2 | 2.1 ± 0.24 | 11.9 ± 4.7 | 16.9 ± 1.4
72 h | 3.01 ± 2.9 | -1.59 ± 0.86 | -0.616 ± 0.39 | 4.96 ± 1.7 | 9.42 ± 0.58

Details | SARS-CoV-2 infection rate, [12] [%] | cell count, [7] [%] | cell viability, Caco-2 [14] [%] | cell viability, Calu-3 [13] [%] | cell viability, HepG2 [16] [%] | cell viability, U2OS [17] [%] | cell viability, Vero E6 [15] [%] | morphology score, [11]
1 nM | – | – | 98.5 ± 0.36 | 102 ± 6.4 | 102 ± 8.2 | 100 ± 5.1 | 102 ± 2.7 | –
10 nM | – | – | 95.8 ± 7.6 | 108 ± 3.5 | 95.7 ± 4 | 101 ± 4.8 | 99.7 ± 3 | –
0.1 µM | 101 ± 1.5 | 101 ± 1.5 | – | – | – | – | – | 0.0167 ± 0.068
100 nM | – | – | 96.8 ± 6.6 | 97.3 ± 7.1 | 103 ± 8 | 99.4 ± 2.5 | 102 ± 3.6 | –
0.3 µM | 99.3 ± 4 | 102 ± 1.7 | – | – | – | – | – | 0.157 ± 0.042
1 µM | 104 ± 1.7 | 100 ± 1.7 | – | – | – | – | – | -0.0567 ± 0.13
1000 nM | – | – | 98.67 ± 0.8 | 109 ± 2.6 | 94.2 ± 5.1 | 97.7 ± 3.5 | 102 ± 2.7 | –
3 µM | 105 ± 4.7 | 97.7 ± 3.1 | – | – | – | – | – | -0.3 ± 0.036
10000 nM | – | – | 45.4 ± 2.4 | 128 ± 100 | 22.5 ± 7.9 | 12.2 ± 8.8 | 52.3 ± 13 | –

CC(C)C[C@H](NC(=O)CNC(=O)c1cc(Cl)ccc1Cl)B1OC(=O)C(CC(=O)O)(CC(=O)O)O1 [MLN9708]
Details | drug sensitivity score | relative viability EC50 [µM]
Caco-2 [2] | 28.8 | –
Calu-3 [1] | 27.3 | –
HepG2 [4] | 22.1 | –
HepG2 [9] | – | 0.139
U2OS [5] | 24.7 | –
Vero E6 [3] | 23.8 | –

A549-ACE2 [6], 24 h
Details | drug-induced phospholipidosis [%]
0.3 µM | 4.58
0.833333 µM | -2.83

Details | SARS-CoV-2 infection rate, [12] [%] | cell count, [7] [%] | cell viability, Caco-2 [14] [%] | cell viability, Calu-3 [13] [%] | cell viability, HepG2 [16] [%] | cell viability, U2OS [17] [%] | cell viability, Vero E6 [15] [%] | morphology score, [11]
1 nM | – | – | 99.6 | 95.1 | 89.6 | 101 | 97 | –
10 nM | – | – | 94.6 | 95.1 | 104 | 95.8 | 99.5 | –
0.1 µM | 88 | 88 | – | – | – | – | – | 0.35
100 nM | – | – | 11.4 | 19.6 | 65 | 43.2 | 44.1 | –
0.3 µM | 83 | 78 | – | – | – | – | – | 0.28
1 µM | 48 | 65 | – | – | – | – | – | 0.27
1000 nM | – | – | 5.1 | 6.6 | 4.3 | 0.5 | 10.5 | –
3 µM | 33 | 57 | – | – | – | – | – | 0.28
10000 nM | – | – | 5 | 5.2 | 0.5 | 0 | 4.8 | –

CC(C)C[C@H](NC(=O)CNC(=O)c1cc(Cl)ccc1Cl)B1OC(=O)C(CC(=O)O)(CC(=O)O)O1 [ixazomib-citrate]
Details | drug sensitivity score | relative viability EC50 [µM]
Caco-2 [2] | 25.9 | –
Calu-3 [1] | 25.5 | –
HepG2 [4] | 17.2 | –
HepG2 [9] | – | 0.358
U2OS [5] | 22.4 | –
Vero E6 [3] | 19.6 | –

Details | drug-induced phospholipidosis [%]
A549-ACE2 [6], 0.3 µM, 24 h | 5.51

Details | SARS-CoV-2 infection rate, [12] [%] | cell count, [7] [%] | cell viability, Caco-2 [14] [%] | cell viability, Calu-3 [13] [%] | cell viability, HepG2 [16] [%] | cell viability, U2OS [17] [%] | cell viability, Vero E6 [15] [%] | morphology score, [11]
1 nM | – | – | 105 | 107 | 106 | 107 | 106 | –
10 nM | – | – | 103 | 103 | 107 | 106 | 102 | –
0.1 µM | 81 | 97 | – | – | – | – | – | 0.41
100 nM | – | – | 22.9 | 27.9 | 98 | 69.6 | 72.5 | –
0.3 µM | 85 | 74 | – | – | – | – | – | 0.25
1 µM | 47 | 69 | – | – | – | – | – | 0.3
1000 nM | – | – | 6.1 | 5.6 | 6.3 | 0.4 | 11.5 | –
3 µM | 43 | 60 | – | – | – | – | – | 0.28
10000 nM | – | – | 7 | 4.8 | 0.3 | -0.3 | 4.8 | –

CN(C)CCCN1c2ccccc2Sc2ccc(C(F)(F)F)cc21 [triflupromazine]
Details | morphology score, 0.3 µM | morphology score, 3 µM | morphology score, 10 µM | morphology score, 30 µM | phospholipidosis EC50, 24 h [µM] | phospholipidosis EC50, 48 h [µM] | phospholipidosis EC50, 72 h [µM]
A549-ACE2 [18] | – | – | – | – | 4.26 | 11.7 | 3.51
[11] | 0.09 | 0.65 | 0.84 | 0.41 | – | – | –

FC(F)(F)c1ccc(CNc2ccc(Cc3c[nH]c4ncc(Cl)cc34)cn2)cn1 [pexidartinib]
Details | drug sensitivity score | relative viability EC50 [µM]
Caco-2 [2] | 0 | –
Caco-2 [8] | – | > 10
Calu-3 [1] | 0 | –
Calu-3 [19] | – | > 10
HepG2 [4] | 1.2 | –
HepG2 [9] | – | > 10
U2OS [5] | 0 | –
U2OS [10] | – | > 10
Vero E6 [3] | 0 | –
Vero E6 [20] | – | > 10

drug-induced phospholipidosis [%], A549-ACE2 [6]
Details | 0.3 µM | 0.833333 µM | 3.33333 µM | 6.66667 µM | 10 µM | 30 µM
24 h | 1.33 | -1.52 | 1.3 | 5.68 | 7.59 | 11.6
48 h | 2.9 | -0.74 | 2.56 | 7.51 | 9.31 | 14.4
72 h | 4.54 | -1.68 | 3.26 | 9.4 | 15.6 | 20.7

Details | SARS-CoV-2 infection rate, [12] [%] | cell count, [7] [%] | cell viability, Caco-2 [14] [%] | cell viability, Calu-3 [13] [%] | cell viability, HepG2 [16] [%] | cell viability, U2OS [17] [%] | cell viability, Vero E6 [15] [%] | morphology score, [11]
1 nM | – | – | 81.7 | 108 | 107 | 94.2 | 99.7 | –
10 nM | – | – | 95.7 | 108 | 92.2 | 100 | 96.4 | –
100 nM | – | – | 98.2 | 97.6 | 105 | 97.9 | 103 | –
0.3 µM | 104 | 95 | – | – | – | – | – | -0.17
1000 nM | – | – | 94.6 | 102 | 94.5 | 102 | 95.3 | –
3 µM | 102 | 101 | – | – | – | – | – | 0.07
10 µM | 103 | 101 | – | – | – | – | – | 0.25
10000 nM | – | – | 94.5 | 90 | 80.7 | 96.8 | 113 | –
30 µM | 67 | 92 | – | – | – | – | – | 0.46
